This experiment has as its target T1, HCV polymerase (Hepatitis C virus genotype 1b, UniProt P26663).
T1 construct: a region encoding NS5B (J Virol 1991 March, 65(3), 1105-13, 544 amino acids after deletion of 47 amino acids on the C-terminal); 6xHis (C); made in house; host or cells: Escherichia coli
Kind of experiment: biochemical. Details: species or system HCV BK strain. The procedure, abridged:
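Recombinant HCV BK-strain NS5B (C-terminal 47 aa deleted, His6-tagged, E. coli), 0.5 μg/ml, run with 5 μg/ml in vitro-transcribed RNA template (polyU/3′X), ATP/GTP/CTP 50 μM, UTP 2 μM plus [3H]UTP, pH 7.5, 25° C, 90 min. TCA-precipitated RNA counted by scintillation; IC50 from activity with vs without compound.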

Each structure is given as a SMILES string. Counter-ions that a name gives are not always drawn.

T1 sequence (P26663 2420-2963): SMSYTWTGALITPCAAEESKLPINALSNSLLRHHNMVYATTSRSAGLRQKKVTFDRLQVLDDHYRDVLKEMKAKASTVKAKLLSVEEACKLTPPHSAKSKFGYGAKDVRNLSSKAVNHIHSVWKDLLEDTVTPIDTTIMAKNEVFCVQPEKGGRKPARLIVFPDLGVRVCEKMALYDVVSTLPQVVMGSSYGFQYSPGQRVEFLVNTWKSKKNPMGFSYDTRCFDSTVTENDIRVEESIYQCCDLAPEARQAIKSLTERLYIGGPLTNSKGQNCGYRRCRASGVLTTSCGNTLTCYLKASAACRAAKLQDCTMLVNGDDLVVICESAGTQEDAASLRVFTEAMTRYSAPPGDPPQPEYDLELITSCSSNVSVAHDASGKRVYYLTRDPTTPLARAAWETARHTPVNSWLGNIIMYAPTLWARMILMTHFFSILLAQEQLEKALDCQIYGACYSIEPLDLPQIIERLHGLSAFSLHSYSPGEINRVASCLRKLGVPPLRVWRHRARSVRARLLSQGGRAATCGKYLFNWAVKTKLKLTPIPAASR

For `CC1CCCCN1CCCN1CCn2c(c(C3CCCCC3)c3ccc(C(=O)O)cc32)-c2ccc(Cl)cc21` (stereo not shown) [Example 1-322, 3-chloro-13-cyclohexyl-5-[3-(2-methylpiperidin-1-yl)propyl]-6,7-dihydro-5H-benzo[5,6][1,4]diazepino[7,1-a]indole-10-carboxylic acid], the half-maximal inhibitory concentration (IC50) (commonly the midpoint of a concentration-inhibition curve) is less than 100 nM. Then `CCN1CCCCC1CCN1CCn2c(c(C3CCCCC3)c3ccc(C(=O)O)cc32)-c2ccc(Cl)cc21` (stereo not shown) [Example 1-323, 3-chloro-13-cyclohexyl-5-[2-(1-ethylpiperidin-2-yl)ethyl]-6,7-dihydro-5H-benzo[5,6][1,4]diazepino[7,1-a]indole-10-carboxylic acid dihydrochloride], with less than 100 nM; and `CCOC1CCCN(CCN2CCn3c(c(C4CCCCC4)c4ccc(C(=O)O)cc43)-c3ccccc32)C1` (stereo not shown) [Example 1-324, 13-cyclohexyl-5-[2-(3-ethoxypiperidin-1-yl)ethyl]-6,7-dihydro-5H-benzo[5,6][1,4]diazepino[7,1-a]indole-10-carboxylic acid monohydrochloride], with less than 100 nM. With `CCOC1CCCN(CCN2CCn3c(c(C4CCCCC4)c4ccc(C(=O)O)cc43)-c3ccc(C)cc32)C1` (stereo not shown) [Example 1-325, 13-cyclohexyl-5-[2-(3-ethoxypiperidin-1-yl)ethyl]-3-methyl-6,7-dihydro-5H-benzo[5,6][1,4]diazepino[7,1-a]indole-10-carboxylic acid monohydrochloride] the figure was less than 100 nM; with `CCOC1CCCN(CCN2CCn3c(c(C4CCCCC4)c4ccc(C(=O)O)cc43)-c3ccc(Cl)cc32)C1` (stereo not shown) [Example 1-326, 3-chloro-13-cyclohexyl-5-[2-(3-ethoxypiperidin-1-yl)ethyl]-6,7-dihydro-5H-benzo[5,6][1,4]diazepino[7,1-a]indole-10-carboxylic acid monohydrochloride], less than 100 nM; with `CCC1COCCN1CCN1CCn2c(c(C3CCCCC3)c3ccc(C(=O)O)cc32)-c2ccc(Cl)cc21` (stereo not shown) [Example 1-327, 3-chloro-13-cyclohexyl-5-[2-(3-ethylmorpholin-4-yl)ethyl]-6,7-dihydro-5H-benzo[5,6][1,4]diazepino[7,1-a]indole-10-carboxylic acid dihydrochloride], less than 100 nM. With `CC1CN(CCN2CCn3c(c(C4CCCCC4)c4ccc(C(=O)O)cc43)-c3ccc(Cl)cc32)CCO1` (stereo not shown) [Example 1-328, 3-chloro-13-cyclohexyl-5-[2-(2-methylmorpholin-4-yl)ethyl]-6,7-dihydro-5H-benzo[5,6][1,4]diazepino[7,1-a]indole-10-carboxylic acid dihydrochloride] the figure was less than 100 nM; with `Cc1ccc2c(c1)N(CCN1CCOC(C)C1)CCn1c-2c(C2CCCCC2)c2ccc(C(=O)O)cc21` (stereo not shown) [Example 1-329, 13-cyclohexyl-3-methyl-5-[2-(2-methylmorpholin-4-yl)ethyl]-6,7-dihydro-5H-benzo[5,6][1,4]diazepino[7,1-a]indole-10-carboxylic acid dihydrochloride], less than 100 nM. In the case of `CNC(=O)N1CCN(CCN2CCn3c(c(C4CCCCC4)c4ccc(C(=O)O)cc43)-c3ccccc32)CC1` [Example 1-330, 13-cyclohexyl-5-[2-(4-methylcarbamoylpiperazin-1-yl)ethyl]-6,7-dihydro-5H-benzo[5,6][1,4]diazepino[7,1-a]indole-10-carboxylic acid dihydrochloride], the half-maximal inhibitory concentration (IC50) was less than 100 nM. With `CCCC1CCCN(CCN2CCn3c(c(C4CCCCC4)c4ccc(C(=O)O)cc43)-c3ccccc32)C1` (stereo not shown) [Example 1-331, 13-cyclohexyl-5-[2-(3-propylpiperidin-1-yl)ethyl]-6,7-dihydro-5H-benzo[5,6][1,4]diazepino[7,1-a]indole-10-carboxylic acid dihydrochloride] the figure was less than 100 nM.

`CCC1CCCCN1CCN1CCn2c(c(C3CCCCC3)c3ccc(C(=O)O)cc32)-c2ccccc21` (stereo not shown) [Example 1-332, 13-cyclohexyl-5-[2-(2-ethylpiperidin-1-yl)ethyl]-6,7-dihydro-5H-benzo[5,6][1,4]diazepino[7,1-a]indole-10-carboxylic acid dihydrochloride] had an IC50 of less than 100 nM. In turn, `CCC1CCCCN1CCN1CCn2c(c(C3CCCCC3)c3ccc(C(=O)O)cc32)-c2ccc(C)cc21` (stereo not shown) [Example 1-333, 13-cyclohexyl-5-[2-(2-ethylpiperidin-1-yl)ethyl]-3-methyl-6,7-dihydro-5H-benzo[5,6][1,4]diazepino[7,1-a]indole-10-carboxylic acid dihydrochloride] came in with an IC50 of less than 100 nM. Then `CCC1CCCCN1CCN1CCn2c(c(C3CCCCC3)c3ccc(C(=O)O)cc32)-c2ccc(Cl)cc21` (stereo not shown) [Example 1-334, 3-chloro-13-cyclohexyl-5-[2-(2-ethylpiperidin-1-yl)ethyl]-6,7-dihydro-5H-benzo[5,6][1,4]diazepino[7,1-a]indole-10-carboxylic acid dihydrochloride], with less than 100 nM; and `CC[C@H]1CCCN(CCN2CCn3c(c(C4CCCCC4)c4ccc(C(=O)O)cc43)-c3ccc(Cl)cc32)C1` [Example 1-335, 3-chloro-13-cyclohexyl-5-[2-((S)-3-ethylpiperidin-1-yl)ethyl]-6,7-dihydro-5H-benzo[5,6][1,4]diazepino[7,1-a]indole-10-carboxylic acid dihydrochloride], with less than 100 nM.

For `CC[C@@H]1CCCN(CCN2CCn3c(c(C4CCCCC4)c4ccc(C(=O)O)cc43)-c3ccc(Cl)cc32)C1` [Example 1-336, 3-chloro-13-cyclohexyl-5-[2-((R)-3-ethylpiperidin-1-yl)ethyl]-6,7-dihydro-5H-benzo[5,6][1,4]diazepino[7,1-a]indole-10-carboxylic acid dihydrochloride], the IC50 is less than 100 nM.

`CC(C)c1ccc2c(c1)N(CCN1CCCCCC1)CCn1c-2c(C2CCCCC2)c2ccc(C(=O)O)cc21` [Example 1-337, 5-[2-(azepan-1-yl)ethyl]-13-cyclohexyl-3-isopropyl-6,7-dihydro-5H-benzo[5,6][1,4]diazepino[7,1-a]indole-10-carboxylic acid dihydrochloride] yielded an IC50 of less than 100 nM. Compound `CCc1ccc2c(c1)N(CCN1CCCCCC1)CCn1c-2c(C2CCCCC2)c2ccc(C(=O)O)cc21` [Example 1-338, 5-[2-(azepan-1-yl)ethyl]-13-cyclohexyl-3-ethyl-6,7-dihydro-5H-benzo[5,6][1,4]diazepino[7,1-a]indole-10-carboxylic acid dihydrochloride] gave a concentration for half-maximal inhibition (IC50) of less than 100 nM. For `CCc1ccc2c(c1)N(CCN1CCCC(C)C1)CCn1c-2c(C2CCCCC2)c2ccc(C(=O)O)cc21` (stereo not shown) [Example 1-339, 13-cyclohexyl-3-ethyl-5-[2-(3-methylpiperidin-1-yl)ethyl]-6,7-dihydro-5H-benzo[5,6][1,4]diazepino[7,1-a]indole-10-carboxylic acid dihydrochloride], the IC50 is less than 100 nM.

Consider `CC1CCCN(CCN2CCn3c(c(C4CCCCC4)c4ccc(C(=O)O)cc43)-c3ccc(C(C)C)cc32)C1` (stereo not shown) [Example 1-340, 13-cyclohexyl-3-isopropyl-5-[2-(3-methylpiperidin-1-yl)ethyl]-6,7-dihydro-5H-benzo[5,6][1,4]diazepino[7,1-a]indole-10-carboxylic acid dihydrochloride], for which the 50% inhibitory concentration (IC50) is less than 100 nM. With `CCC1CCCN(CCN2CCn3c(c(C4CCCCC4)c4ccc(C(=O)O)cc43)-c3ccc(C(C)C)cc32)C1` (stereo not shown) [Example 1-341, 13-cyclohexyl-5-[2-(3-ethylpiperidin-1-yl)ethyl]-3-isopropyl-6,7-dihydro-5H-benzo[5,6][1,4]diazepino[7,1-a]indole-10-carboxylic acid dihydrochloride] the figure was less than 100 nM; with `O=C(O)c1ccc2c(C3CCCCC3)c3n(c2c1)CCN(CCC1CCCN(C2CC2)C1)c1cc(Cl)ccc1-3` (stereo not shown) [Example 1-342, 3-chloro-13-cyclohexyl-5-[2-(1-cyclopropylpiperidin-3-yl)ethyl]-6,7-dihydro-5H-benzo[5,6][1,4]diazepino[7,1-a]indole-10-carboxylic acid dihydrochloride], less than 100 nM.

For the compound `CCCc1ccc2c(c1)N(CCN1CCCCC1)CCn1c-2c(C2CCCCC2)c2ccc(C(=O)O)cc21` [Example 1-343, 13-cyclohexyl-5-[2-(piperidin-1-yl)ethyl]-3-propyl-6,7-dihydro-5H-benzo[5,6][1,4]diazepino[7,1-a]indole-10-carboxylic acid dihydrochloride], the IC50 is less than 100 nM. Then `Cc1cc(COc2ccc3c(c2)N(CC[N+](C)(C)Cc2cc(C)on2)CCn2c-3c(C3CCCCC3)c3ccc(C(=O)O)cc32)no1` [Example 1-344, N-{2-[10-carboxy-13-cyclohexyl-3-(5-methylisoxazol-3-ylmethoxy)-6,7-dihydro-benzo[5,6][1,4]diazepino[7,1-a]indol-5-yl]ethyl}-N,N-dimethyl-N-(5-methylisoxazol-3-ylmethyl)ammonium chloride monohydrochloride], with less than 100 nM.

As to `CCOc1ccc2c(c1)N(CCN1CCCC(C)C1)CCn1c-2c(C2CCCCC2)c2ccc(C(=O)O)cc21` (stereo not shown) [Example 1-345, 13-cyclohexyl-3-ethoxy-5-[2-(3-methylpiperidin-1-yl)ethyl]-6,7-dihydro-5H-benzo[5,6][1,4]diazepino[7,1-a]indole-10-carboxylic acid dihydrochloride], the IC50 was less than 100 nM. With `CCCc1ccc2c(c1)N(CCN1CCCC(COC)C1)CCn1c-2c(C2CCCCC2)c2ccc(C(=O)O)cc21` (stereo not shown) [Example 1-346, 13-cyclohexyl-5-[2-(3-methoxymethylpiperidin-1-yl)ethyl]-3-propyl-6,7-dihydro-5H-benzo[5,6][1,4]diazepino[7,1-a]indole-10-carboxylic acid dihydrochloride] the figure was less than 100 nM.

For the origin of these results see patent US20070049593A1 (priority 2004, published 2007).
